Laboratory results reported in US6310095A, “Inhibitors of protein isoprenyl transferases” (University of Pittsburgh, priority 1998, dated 2001).
Where a name gives a salt, the structure may show the parent alone. One block for each compound: values may come before it.

Target: T1, protein farnesyltransferase (Rattus norvegicus, UniProt Q02293+Q04631)
T1 construct: Rat brain protein farnesyltransferase activity is measured; from tissue; host or cells: rat brain; purified according to Reiss et al., Cell 62:81-88 (1990), steps one through three
Assay: in vitro inhibition of protein farnesyltransferase (scintillation proximity assay, biotin-K Ras B fragment)
Assay type: biochemical
Conditions: for inhibition at 1 µM / inhibition at 0.1 µM / inhibition at 0.01 µM: read-out: % inhibition of farnesyltransferase; for inhibition at 0.01 µM: at 1 × 10^-8 M
Description: The ability of the compounds of the invention to inhibit protein farnesyltransferase or protein geranylgeranyltransferase can be measured according to the method of Moores, et al., J. Biol. Chem. 266: 14603 (1991) or the method of Vogt, et al., J. Biol. Chem. 270:660-664 (1995). In addition, procedures for determination of the inhibition of farnesylation of the oncogene protein Ras are described by Goldstein, et al., J. Biol. Chem., 266:15575-15578 (1991) and by Singh in U.S. Pat. No. 5,245,061.
In addition, in vitro inhibition of protein farnesyltransferase may be measured by the following procedure. Rat brain protein farnesyltransferase activity is measured using an Amersham Life Science commercial scintillation proximity assay kit and substituting a biotin-K Ras B fragment (biotin-[…]CO2 H), 0.1 mM final concentration, for the biotin-lamin substrate provided by Amersham. The enzyme is purified according to Reiss, Y., et al., Cell, 62: 81-88 (1990), utilizing steps one through three.
The % inhibition of protein farnesyltransferase was determined for representative compounds of the invention.

Compound: CSCC[C@H](NC(=O)c1ccc(Sc2ccc3ccccc3c2)cc1-c1ccccc1C)C(=O)O [Example 497]
- % inhibition of farnesyltransferase (at 1 × 10^-6 M): 94%

Compound: CSCC[C@H](NC(=O)c1ccc(SCCc2ccccc2)cc1-c1ccccc1C)C(=O)O [Example 498]
- % inhibition of farnesyltransferase (at 1 × 10^-6 M): 98%

Compound: CSCC[C@H](NC(=O)c1ccc(NCCO)cc1-c1ccccc1)C(=O)O [Example 502, N-[4-N-2-hydroxyethylamino-2-phenylbenzoyl]methionine]
- inhibition at 1 µM (at 1 × 10^-6 M): 24%

Compound: CSCC[C@H](NC(=O)c1ccc(NC(=O)[C@@H](N)COCc2ccccc2)cc1-c1ccccc1)C(=O)O [Example 503, N-[4-(N-2-amino-3-benzyloxypropionyl)amino-2-phenylbenzoyl]methionine]
- inhibition at 1 µM (at 1 × 10^-6 M): 57%

Compound: CSCC[C@H](NC(=O)c1ccc(CN(Cc2ccccc2)Cc2ccco2)cc1-c1ccccc1C)C(=O)O [Example 504, N-[4-N-(furan-2-ylmethyl)-N-benzylaminomethyl-2-(2-methylphenyl)benzoyl]methionine lithium salt]
- inhibition at 1 µM (at 1 × 10^-6 M): 90%

Compound: CSCC[C@H](NC(=O)c1ccc(CN(CCO)c2ccccc2)cc1-c1ccccc1)C(=O)O [Example 505]
- inhibition at 1 µM (at 1 × 10^-6 M): 72%

Compound: CSCC[C@H](NC(=O)c1ccc(CN(CCc2ccccc2)c2ccccc2)cc1-c1ccccc1C)C(=O)O [Example 507]
- inhibition at 1 µM (at 1 × 10^-6 M): 96%

Compound: CSCC[C@H](NC(=O)c1ccc(CN(CCCc2ccccc2)c2ccccc2)cc1-c1ccccc1C)C(=O)O [Example 508]
- inhibition at 1 µM (at 1 × 10^-6 M): 95%

Compound: CSCC[C@H](NC(=O)c1ccc(CN(CC(c2ccccc2)c2ccccc2)c2ccccc2)cc1-c1ccccc1C)C(=O)O [Example 509]
- inhibition at 1 µM (at 1 × 10^-6 M): 77%

Compound: CSCC[C@H](NC(=O)c1ccc(CN(CC23CC4CC(CC(C4)C2)C3)c2ccccc2)cc1-c1ccccc1C)C(=O)O [Example 510]
- inhibition at 1 µM (at 1 × 10^-6 M): 84%

Compound: CSCC[C@H](NC(=O)c1ccc(CN(CCC23CC4CC(CC(C4)C2)C3)c2ccccc2)cc1-c1ccccc1C)C(=O)O [Example 511]
- inhibition at 0.1 µM (at 1 × 10^-7 M): 82%

Compound: CSCC[C@H](NC(=O)c1ccc(CN(Cc2ccccc2)Cc2ccccc2)cc1-c1ccccc1C)C(=O)O [Example 512, N-[4-N,N-dibenzylaminomethyl-2-(2-methylphenyl)benzoyl]methionine lithium salt]
- inhibition at 1 µM (at 1 × 10^-6 M): 94%

Compound: CSCC[C@H](NC(=O)c1ccc(CN(CCc2ccccc2)Cc2ccccc2)cc1-c1ccccc1C)C(=O)O [Example 513, N-[4-N-(2-phenylethyl)-N-benzylaminomethyl-2-(2-methylphenyl)benzoyl]methionine lithium salt]
- inhibition at 1 µM (at 1 × 10^-6 M): 96%

Compound: CSCC[C@H](NC(=O)c1ccc(CN(Cc2ccccc2)Cc2cccc(Oc3ccccc3)c2)cc1-c1ccccc1C)C(=O)O [Example 514, N-[4-N-(3-phenoxybenzyl)-N-benzylaminomethyl-2-(2-methylphenyl)benzoyl]methionine lithium salt]
- inhibition at 1 µM (at 1 × 10^-6 M): 94%

Compound: CSCC[C@H](NC(=O)c1ccc(CN(CCO)Cc2ccccc2)cc1-c1ccccc1)C(=O)O [Example 515, N-[4-N-(2-hydroxyethyl)-N-benzylaminomethyl-2-phenylbenzoyl]methionine lithium salt]
- inhibition at 1 µM (at 1 × 10^-6 M): 72%

Compound: CSCC[C@H](NC(=O)c1ccc(CN(C)CCc2ccccc2)cc1-c1ccccc1C)C(=O)O [Example 516, N-[4-N-methyl-N-(2-phenyethyl)aminomethyl-2-(2-methylphenyl)benzoyl]methionine lithium salt]
- inhibition at 1 µM (at 1 × 10^-6 M): 95%

Compound: CSCC[C@H](NC(=O)c1ccc(CN(Cc2ccccc2)c2cnccn2)cc1-c1ccccc1C)C(=O)O [Example 517, N-[4-N-benzyl-N-pyrazin-2-ylaminomethyl-2-(2-methylphenyl)benzoyl]methionine lithium salt]
- inhibition at 0.01 µM: 92%

Compound: CSCC[C@H](NC(=O)c1ccc(CN(CCc2ccccc2)c2cncnc2)cc1-c1ccccc1C)C(=O)O [Example 518, N-[4-N-(2-phenyethyl)-N-pyrimidin-5-ylaminomethyl-2-(2-methylphenyl)benzoyl]methionine lithium salt]
- inhibition at 0.01 µM: 90%

Compound: CSCC[C@H](NC(=O)c1ccc(CNCCc2c[nH]c3ccccc23)cc1-c1ccccc1C)C(=O)O [Example 519, N-[4-N-(2-indol-3-ylethyl)aminomethyl-2-(2-methylphenyl)benzoyl]methionine lithium salt]
- inhibition at 0.1 µM (at 1 × 10^-7 M): 89%

Compound: CSCC[C@H](NC(=O)c1ccc(COC(Cc2ccccc2)Cc2ccccc2)cc1-c1ccccc1C)C(=O)[O-].[Li+] [Example 522]
- % inhibition of farnesyltransferase (at 1 × 10^-7 M): 93%

Compound: CSCC[C@H](NC(=O)c1ccc(COCCc2ccco2)cc1-c1ccccc1C)C(=O)[O-].[Li+] [Example 531]
- % inhibition of farnesyltransferase (at 1 × 10^-7 M): 74%

Compound: CSCC[C@H](NC(=O)c1ccc(COCc2cc3ccccc3o2)cc1-c1ccccc1C)C(=O)[O-].[Li+] [Example 533]
- % inhibition of farnesyltransferase (at 1 × 10^-7 M): 91%

Compound: CSCC[C@H](NC(=O)c1ccc(COC(Cc2ccccc2)c2ccco2)cc1-c1ccccc1C)C(=O)[O-].[Li+] (stereo partly shown) [Example 534]
- % inhibition of farnesyltransferase (at 1 × 10^-7 M): 84%

Now from value to compound:

- inhibition at 0.1 µM (at 1 × 10^-7 M): 97%
Compound: CSCC[C@H](NC(=O)c1ccc(CN[C@H](CO)C2CCCCC2)cc1-c1ccccc1C)C(=O)O [Example 520, N-[4-N-(2-cyclohexyl-1-ethan-1-ol-2-yl)aminomethyl-2-(2-methylphenyl)benzoyl]methionine lithium salt]

- % inhibition of farnesyltransferase (at 1 × 10^-7 M): 94%
Compound: C=C(C)C1CC=C(COCc2ccc(C(=O)N[C@@H](CCSC)C(=O)O)c(-c3ccccc3C)c2)CC1 (stereo partly shown) [Example 521]

- inhibition at 0.1 µM (at 1 × 10^-7 M): 97%
Compound: CSCC[C@H](NC(=O)c1ccc(CNC(Cc2ccccc2)Cc2ccccc2)cc1-c1ccccc1C)C(=O)O [Example 523, N-[4-N-(1,3-diphenylpropan-2-yl)aminomethyl-2-(2-methylphenyl)benzoyl]methionine lithium salt]

- inhibition at 0.1 µM (at 1 × 10^-7 M): 99%
Compound: CSCC[C@H](NC(=O)c1ccc(CNC(CC2CCCCC2)CC2CCCCC2)cc1-c1ccccc1C)C(=O)O [Example 524, N-[4-N-(1,3-dicyclohexylpropan-2-yl)aminomethyl-2-(2-methylphenyl)benzoyl]methionine lithium salt]

- % inhibition of farnesyltransferase (at 1 × 10^-6 M): 99%
Compound: CCOC[C@H](CC1CCCCC1)OCc1ccc(C(=O)N[C@@H](CCSC)C(=O)O)c(-c2ccccc2C)c1 [Example 525]

- inhibition at 0.1 µM (at 1 × 10^-7 M): 96%
Compound: CSCC[C@H](NC(=O)c1ccc(CN[C@H](/C=C\CC(C)C)CC2CCCCC2)cc1-c1ccccc1C)C(=O)O [Example 526, N-[4-N-(1-Cyclohexyl-6-methylhept-3-en-2-yl)aminomethyl-2-(2-methylphenyl)benzoyl]methionine lithium salt]

- inhibition at 0.1 µM (at 1 × 10^-7 M): 97%
Compound: CSCC[C@H](NC(=O)c1ccc(CN[C@H](CCCC(C)C)CC2CCCCC2)cc1-c1ccccc1C)C(=O)O [Example 527, N-[4-N-(1-Cyclohexyl-6-methylheptan-2-yl)aminomethyl-2-(2-methylphenyl)benzoyl]methionine lithium salt]

- inhibition at 1 µM (at 1 × 10^-6 M): 99%
Compound: CSCC[C@H](NC(=O)c1ccc(CNC(CC2CCCCC2)C(O)C(O)CC(C)C)cc1-c1ccccc1C)C(=O)O (stereo partly shown) [Example 528]

- % inhibition of farnesyltransferase (at 1 × 10^-6 M): 99%
Compound: CSCC[C@H](NC(=O)c1ccc(CNC(CC2CCCCC2)C(O)C(O)CC(C)C)cc1-c1ccccc1C)C(=O)O (stereo partly shown) [Example 529]

- % inhibition of farnesyltransferase (at 1 × 10^-6 M): 94%
Compound: CSCC[C@H](NC(=O)c1ccc(COCc2ccoc2)cc1-c1ccccc1C)C(=O)O [Example 530]

- % inhibition of farnesyltransferase (at 1 × 10^-7 M): 88%
Compound: CSCC[C@H](NC(=O)c1ccc(COCc2ccc(C)o2)cc1-c1ccccc1C)C(=O)O [Example 532]
